Experimental findings from ChEMBL document CHEMBL3886421, “6-thio-substituted imidazo[1,2-a]pyrazines as Mps-1 inhibitors” (2015) are described below.

The assay addresses T1, Dual specificity protein kinase TTK (Homo sapiens, UniProt P33981).
T1 sequence (P33981 whole entry): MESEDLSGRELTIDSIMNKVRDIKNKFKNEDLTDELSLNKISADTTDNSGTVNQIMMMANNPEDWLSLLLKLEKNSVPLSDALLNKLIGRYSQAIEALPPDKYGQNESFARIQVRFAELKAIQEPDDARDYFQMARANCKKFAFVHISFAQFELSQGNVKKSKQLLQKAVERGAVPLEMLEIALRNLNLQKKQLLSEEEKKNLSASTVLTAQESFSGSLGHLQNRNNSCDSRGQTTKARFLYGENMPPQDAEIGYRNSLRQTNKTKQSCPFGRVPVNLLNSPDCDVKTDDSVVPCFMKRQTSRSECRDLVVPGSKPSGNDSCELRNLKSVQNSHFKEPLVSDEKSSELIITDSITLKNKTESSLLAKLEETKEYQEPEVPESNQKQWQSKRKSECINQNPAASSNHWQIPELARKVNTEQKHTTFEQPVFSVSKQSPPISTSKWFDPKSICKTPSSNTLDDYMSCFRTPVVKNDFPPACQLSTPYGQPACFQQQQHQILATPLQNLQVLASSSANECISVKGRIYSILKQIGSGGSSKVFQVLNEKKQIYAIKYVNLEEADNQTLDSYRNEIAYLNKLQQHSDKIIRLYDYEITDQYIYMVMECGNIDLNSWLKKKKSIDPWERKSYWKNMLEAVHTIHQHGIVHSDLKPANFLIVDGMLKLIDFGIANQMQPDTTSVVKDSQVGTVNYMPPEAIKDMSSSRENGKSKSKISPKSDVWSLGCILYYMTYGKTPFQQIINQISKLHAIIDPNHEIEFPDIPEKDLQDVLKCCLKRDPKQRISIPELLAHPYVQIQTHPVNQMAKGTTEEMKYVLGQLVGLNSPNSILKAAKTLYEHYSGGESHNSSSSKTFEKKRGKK
In words: Kinase Assay: For the assay 50 nL of a 100-fold concentrated solution of the test compound in DMSO was pipetted into a black low volume 384 well microtiter plate (Greiner Bio-One, Frickenhausen, Germany), 2 ul of a solution of Mps-1 in assay buffer [0.1 mM sodium-ortho-vanadate, 10 mM MgCl2, 2 mM DTT, 25 mM Hepes pH 7.7, 0.05% BSA, 0.001% Pluronic F-127] were added and the mixture was incubated for 15 min at 22° C. to allow pre-binding of the test compounds to Mps-1 before the start of the kinase reaction. Then the kinase reaction was started by the addition of 3 ul of a solution of 16.7 adenosine-tri-phosphate (ATP, 16.7 uM=>final conc. in the 5 ul assay volume is 10 uM) and peptide substrate (1.67 uM=>final conc. in the 5 ul assay volume is 1 uM) in assay buffer and the resulting mixture was incubated for a reaction time of 60 min at 22° C. The concentration of Mps-1 in the assay was adjusted to the activity of the enzyme lot.

For orientation: IC50 means the concentration at which inhibition is half-maximal. As for `CCCSc1cn2c(-c3ccc(C(=O)NC4CC4)c(C)c3)cnc2c(NCC(C)(C)O)n1`, the IC50 came out at 52.1 nM.
